In patent US6358885B1, “Substituted phenylheterocyclic herbicides” (Mississippi State University, priority 1992, dated 2002):

What was measured:
Assay in all cases: Test B preemergence/postemergence greenhouse plant response rating 0 to 10
[1] = system: corn; format: in vivo, Zea mays; details: for Plant response rating, Corn: 0 to 10 scale
Procedure, shortened: (§1)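 Both application timings were run together: seeds got compound preemergence, and established seedlings (two to eighteen cm) got it postemergence. Non-phytotoxic solvent carried the chemical. Ratings are visual, versus controls, at twelve to sixteen days.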

[2] = system: chickweed; format: in vivo, Stellaria media; details: for Plant response rating, Chickweed: 0 to 10 scale
Procedure, shortened: as §1

[3] = system: giant foxtail; format: in vivo, Setaria faberii; details: for Plant response rating, Giant foxtail: 0 to 10 scale
Procedure, shortened: as §1

[4] = system: lambsquarters; format: in vivo, Chenopodium album; details: for Plant response rating, Lambsquarter: 0 to 10 scale
Procedure, shortened: as §1

[5] = system: wild oat; format: in vivo, Avena fatua; details: for Plant response rating, Wild oat: 0 to 10 scale
Procedure, shortened: as §1

[6] = system: sorghum; format: in vivo, Sorghum bicolor; details: for Plant response rating, Sorghum: 0 to 10 scale
Procedure, shortened: as §1

[7] = system: barnyardgrass; format: in vivo, Echinochloa crus-galli; details: for Plant response rating, Barnyardgrass: 0 to 10 scale
Procedure, shortened: as §1

[8] = system: barley; format: in vivo, Hordeum vulgare; details: for Plant response rating, Barley: 0 to 10 scale
Procedure, shortened: as §1

[9] = system: cocklebur; format: in vivo, Xanthium pensylvanicum; details: for Plant response rating, Cocklebur: 0 to 10 scale
Procedure, shortened: as §1

[10] = system: purple nutsedge; format: in vivo, Cyperus rotundus; details: for Plant response rating, Nutsedge: 0 to 10 scale
Procedure, shortened: as §1

[11] = system: wheat; format: in vivo, Triticum aestivum; details: for Plant response rating, Wheat: 0 to 10 scale
Procedure, shortened: as §1

[12] = system: soybean; format: in vivo, Glycine max; details: for Plant response rating, Soybean: 0 to 10 scale
Procedure, shortened: as §1

[13] = system: crabgrass; format: in vivo, Digitaria spp.; details: for Plant response rating, Crabgrass: 0 to 10 scale
Procedure, shortened: as §1

[14] = system: cheatgrass; format: in vivo, Bromus secalinus; details: for Plant response rating, Cheatgrass: POSTEMERGENCE, 0 to 10 scale
Procedure, shortened: as §1

[15] = system: blackgrass; format: in vivo, Alopecurus myosuroides; details: for Plant response rating, Blackgrass: 0 to 10 scale
Procedure, shortened: as §1

[16] = system: rape; format: in vivo, Brassica napus; details: for Plant response rating, Rape: 0 to 10 scale
Procedure, shortened: as §1

[17] = system: bedstraw; format: in vivo, Galium aparine; details: for Plant response rating, Bedstraw: 0 to 10 scale
Procedure, shortened: as §1

[18] = system: morningglory; format: in vivo, Ipomoea hederacea; details: for Plant response rating, Morningglory: 0 to 10 scale
Procedure, shortened: as §1

[19] = system: rice; format: in vivo, Oryza sativa; details: for Plant response rating, Rice: 0 to 10 scale
Procedure, shortened: as §1

[20] = system: velvetleaf; format: in vivo, Abutilon theophrasti; details: for Plant response rating, Velvetleaf: 0 to 10 scale
Procedure, shortened: as §1

[21] = system: sugar beet; format: in vivo, Beta vulgaris; details: for Plant response rating, Sugar beet: 0 to 10 scale
Procedure, shortened: as §1

[22] = system: cotton; format: in vivo, Gossypium hirsutum; details: for Plant response rating, Cotton: 0 to 10 scale
Procedure, shortened: as §1

[23] = system: wild buckwheat; format: in vivo, Polygonum convolvulus; details: for Plant response rating, Wild buckwheat: 0 to 10 scale
Procedure, shortened: as §1

Oc1cc(-c2nn3c(c2Cl)CCCC3)c(Cl)cc1Cl [Compound 68]
6: Plant response rating, Lambsquarter ([4]; PREEMERGENCE, Rate 50 g/ha) | Plant response rating, Cocklebur ([9]; POSTEMERGENCE, Rate 50 g/ha) | Plant response rating, Soybean ([12]; Rate 200 g/ha, POSTEMERGENCE)
2: Plant response rating, Chickweed ([2]; PREEMERGENCE, Rate 50 g/ha) | Plant response rating (0 to 10 scale), Chickweed ([2]; PREEMERGENCE, Rate 200 g/ha) | Plant response rating, Wild oat ([5]; POSTEMERGENCE, Rate 50 g/ha) | Plant response rating, Barnyardgrass ([7]; POSTEMERGENCE, Rate 50 g/ha) | Plant response rating, Nutsedge ([10]; POSTEMERGENCE, Rate 50 g/ha) | Plant response rating (0 to 10 scale), Crabgrass ([13]; PREEMERGENCE, Rate 200 g/ha) | Plant response rating, Cheatgrass ([14]; Rate 50 g/ha) | Plant response rating, Blackgrass ([15]; POSTEMERGENCE, Rate 50 g/ha) | Plant response rating, Blackgrass ([15]; PREEMERGENCE, Rate 50 g/ha) | Plant response rating (0 to 10 scale), Bedstraw ([17]; PREEMERGENCE, Rate 200 g/ha)
9: Plant response rating, Bedstraw ([17]; Rate 200 g/ha, POSTEMERGENCE) | Plant response rating (0 to 10 scale), Velvetleaf ([20]; PREEMERGENCE, Rate 200 g/ha) | Plant response rating, Sugar beet ([21]; POSTEMERGENCE, Rate 50 g/ha) | Plant response rating (0 to 10 scale), Sugar beet ([21]; PREEMERGENCE, Rate 200 g/ha)
0: Plant response rating, Corn ([1]; PREEMERGENCE, Rate 50 g/ha) | Plant response rating (0 to 10 scale), Corn ([1]; PREEMERGENCE, Rate 200 g/ha) | Plant response rating, Chickweed ([2]; POSTEMERGENCE, Rate 50 g/ha) | Plant response rating, Giant foxtail ([3]; PREEMERGENCE, Rate 50 g/ha) | Plant response rating (0 to 10 scale), Giant foxtail ([3]; PREEMERGENCE, Rate 200 g/ha) | Plant response rating (0 to 10 scale), Lambsquarter ([4]; PREEMERGENCE, Rate 200 g/ha) | Plant response rating, Wild oat ([5]; PREEMERGENCE, Rate 50 g/ha) | Plant response rating (0 to 10 scale), Wild oat ([5]; PREEMERGENCE, Rate 200 g/ha) | Plant response rating, Sorghum ([6]; PREEMERGENCE, Rate 50 g/ha) | Plant response rating (0 to 10 scale), Sorghum ([6]; PREEMERGENCE, Rate 200 g/ha) | Plant response rating, Barnyardgrass ([7]; PREEMERGENCE, Rate 50 g/ha) | Plant response rating (0 to 10 scale), Barnyardgrass ([7]; PREEMERGENCE, Rate 200 g/ha) | Plant response rating, Barley ([8]; PREEMERGENCE, Rate 50 g/ha) | Plant response rating (0 to 10 scale), Barley ([8]; PREEMERGENCE, Rate 200 g/ha) | Plant response rating, Cocklebur ([9]; PREEMERGENCE, Rate 50 g/ha) | Plant response rating (0 to 10 scale), Cocklebur ([9]; PREEMERGENCE, Rate 200 g/ha) | Plant response rating, Nutsedge ([10]; PREEMERGENCE, Rate 50 g/ha) | Plant response rating (0 to 10 scale), Nutsedge ([10]; PREEMERGENCE, Rate 200 g/ha) | Plant response rating, Wheat ([11]; PREEMERGENCE, Rate 50 g/ha) | Plant response rating, Soybean ([12]; PREEMERGENCE, Rate 50 g/ha) | Plant response rating (0 to 10 scale), Soybean ([12]; PREEMERGENCE, Rate 200 g/ha) | Plant response rating, Crabgrass ([13]; PREEMERGENCE, Rate 50 g/ha) | Plant response rating, Rape ([16]; PREEMERGENCE, Rate 50 g/ha) | Plant response rating (0 to 10 scale), Rape ([16]; PREEMERGENCE, Rate 200 g/ha) | Plant response rating, Bedstraw ([17]; PREEMERGENCE, Rate 50 g/ha) | Plant response rating, Morningglory ([18]; PREEMERGENCE, Rate 50 g/ha) | Plant response rating (0 to 10 scale), Morningglory ([18]; PREEMERGENCE, Rate 200 g/ha) | Plant response rating, Rice ([19]; PREEMERGENCE, Rate 50 g/ha) | Plant response rating (0 to 10 scale), Rice ([19]; PREEMERGENCE, Rate 200 g/ha) | Plant response rating, Velvetleaf ([20]; PREEMERGENCE, Rate 50 g/ha) | Plant response rating, Sugar beet ([21]; PREEMERGENCE, Rate 50 g/ha) | Plant response rating, Cotton ([22]; PREEMERGENCE, Rate 50 g/ha) | Plant response rating (0 to 10 scale), Cotton ([22]; PREEMERGENCE, Rate 200 g/ha) | Plant response rating, Wild buckwheat ([23]; PREEMERGENCE, Rate 50 g/ha)
3: Plant response rating, Corn ([1]; POSTEMERGENCE, Rate 50 g/ha) | Plant response rating, Wild oat ([5]; Rate 200 g/ha, POSTEMERGENCE) | Plant response rating, Sorghum ([6]; POSTEMERGENCE, Rate 50 g/ha) | Plant response rating, Barnyardgrass ([7]; Rate 200 g/ha, POSTEMERGENCE) | Plant response rating, Barley ([8]; POSTEMERGENCE, Rate 50 g/ha) | Plant response rating, Barley ([8]; Rate 200 g/ha, POSTEMERGENCE) | Plant response rating, Nutsedge ([10]; Rate 200 g/ha, POSTEMERGENCE) | Plant response rating, Wheat ([11]; POSTEMERGENCE, Rate 50 g/ha) | Plant response rating (0 to 10 scale), Wheat ([11]; PREEMERGENCE, Rate 200 g/ha) | Plant response rating, Crabgrass ([13]; POSTEMERGENCE, Rate 50 g/ha) | Plant response rating (0 to 10 scale), Cheatgrass ([14]; PREEMERGENCE, Rate 200 g/ha) | Plant response rating, Cheatgrass ([14]; Rate 200 g/ha) | Plant response rating, Blackgrass ([15]; Rate 200 g/ha, POSTEMERGENCE) | Plant response rating, Rape ([16]; POSTEMERGENCE, Rate 50 g/ha)
1: Plant response rating, Chickweed ([2]; Rate 200 g/ha, POSTEMERGENCE)
4: Plant response rating, Corn ([1]; Rate 200 g/ha, POSTEMERGENCE) | Plant response rating, Giant foxtail ([3]; POSTEMERGENCE, Rate 50 g/ha) | Plant response rating, Giant foxtail ([3]; Rate 200 g/ha, POSTEMERGENCE) | Plant response rating, Sorghum ([6]; Rate 200 g/ha, POSTEMERGENCE) | Plant response rating, Wheat ([11]; Rate 200 g/ha, POSTEMERGENCE) | Plant response rating, Soybean ([12]; POSTEMERGENCE, Rate 50 g/ha) | Plant response rating, Crabgrass ([13]; Rate 200 g/ha, POSTEMERGENCE) | Plant response rating (0 to 10 scale), Wild buckwheat ([23]; PREEMERGENCE, Rate 200 g/ha)
10: Plant response rating, Lambsquarter ([4]; POSTEMERGENCE, Rate 50 g/ha) | Plant response rating, Lambsquarter ([4]; Rate 200 g/ha, POSTEMERGENCE) | Plant response rating, Velvetleaf ([20]; Rate 200 g/ha, POSTEMERGENCE) | Plant response rating, Sugar beet ([21]; Rate 200 g/ha, POSTEMERGENCE) | Plant response rating, Cotton ([22]; POSTEMERGENCE, Rate 50 g/ha) | Plant response rating, Cotton ([22]; Rate 200 g/ha, POSTEMERGENCE) | Plant response rating, Wild buckwheat ([23]; POSTEMERGENCE, Rate 50 g/ha) | Plant response rating, Wild buckwheat ([23]; Rate 200 g/ha, POSTEMERGENCE)
5: Plant response rating, Rape ([16]; Rate 200 g/ha, POSTEMERGENCE) | Plant response rating, Rice ([19]; POSTEMERGENCE, Rate 50 g/ha) | Plant response rating, Rice ([19]; Rate 200 g/ha, POSTEMERGENCE)
8: Plant response rating (0 to 10 scale), Blackgrass ([15]; PREEMERGENCE, Rate 200 g/ha) | Plant response rating, Morningglory ([18]; POSTEMERGENCE, Rate 50 g/ha) | Plant response rating, Morningglory ([18]; Rate 200 g/ha, POSTEMERGENCE) | Plant response rating, Velvetleaf ([20]; POSTEMERGENCE, Rate 50 g/ha)
7: Plant response rating, Cocklebur ([9]; Rate 200 g/ha, POSTEMERGENCE) | Plant response rating, Bedstraw ([17]; POSTEMERGENCE, Rate 50 g/ha)
